Measured values: patent US4578489A (priority 1982, dated 1986)

Experiments:
Type in all cases: cell-based
Aureobasidium pullulans = test: Minimum inhibitory concentration against fungi, agar incorporation test, strain R; conditions: malt extract/agar
Description: (§1) The invention is carried out using the known agar incorporation test in the following fungi:
(R) Aureobasidium pullulans
(§2) in a malt extract/agar (Merck). Inhibition is effected by adding sufficient of each of the various compounds to give final concentrations in the agar of 2, 5, 10, 50 and 100 mg/liter. The concentrations (mg/liters) required to inhibit the growth of the fungi (starting from traces of fungi added dropwise) are illustrated in Table 3.

[1] = test system: Cladosporium cladosporioides; test: Minimum inhibitory concentration against fungi, agar incorporation test, strain O; conditions: malt extract/agar
Description: as §1
(O) Cladosporium cladosporioides
as §2

Penicillium funiculosum = test: Minimum inhibitory concentration against fungi, agar incorporation test, strain M; conditions: malt extract/agar
Description: as §1
(M) Penicillium funiculosum
as §2

Enterobacter aerogenes = test: Minimum inhibitory concentration against bacteria, strain C; conditions: 24 hours at 30° C.; tested at 100 and 300 mg/liter
Description: (§3) Overnight cultures, grown in Caso peptone bouillon (Merck) of the various strains of bacteria: (A) Proteus vulgaris, (B) Pseudomonas aeruginosa, (C) Enterobacter aerogenes, (D) Serratia marcencens, (E) Alcaligenes denitrificans and (F) Bacillus subtilis are each diluted in a ratio of 1/1000 in saline solution. Sufficient of the suspensions is put into Caso peptone bouillon to dilute the bacteria again in the ratio of 1/1000. Each of the compounds listed in Table 1 is then added in amounts of 100 and 300 mg/liter. After being incubated for 24 hours at 30° C. in a shaking waterbath, the turbidity of the samples is evaluated.

[2] = test system: Alcaligenes denitrificans; test: Minimum inhibitory concentration against bacteria, strain E; conditions: 24 hours at 30° C.; tested at 100 and 300 mg/liter
Description: as §3

Aspergillus phoenicis = test: Minimum inhibitory concentration against fungi, agar incorporation test, strain L; conditions: malt extract/agar
Description: as §1
(L) Aspergillus phoenicis
as §2

Bacillus subtilis = test: Minimum inhibitory concentration against bacteria, strain F; conditions: 24 hours at 30° C.; tested at 100 and 300 mg/liter
Description: as §3

Aspergillus niger = test: Minimum inhibitory concentration against fungi, agar incorporation test, strain K; conditions: malt extract/agar
Description: as §1, §2

Chlorella vulgaris = test: Action against algae: Chlorella vulgaris; design: key: --: no growth on the agar, 3 ppm have destroyed the algae in 6 hours; conditions: 3 mg/liter; for Growth on the agar (algae-destroying action): 6 hours exposure, 14 days incubation; for Growth in the medium (growth inhibition): 14 days
Description: Cultures of Chlorella vulgaris which had been grown for 14 days in algae nutrient media are diluted in the ratio 1/200 in the algae nutrient medium. Each of the compounds listed in Table 1 is then added in such an amount as to give a final concentration of 3 mg/liter. After incubating for 6 hours, 10 μl of each culture are withdrawn and added dropwise to algae/agar in order to determine the destructive action. After the cultures have incubated for 14 days under illumination (14 hours of light and 10 hours of darkness, alternately), the growth in the algae medium (determination of growth inhibition) and on the algae/agar (determination of algae-destroying action) is assessed visually.

Proteus vulgaris = test: Minimum inhibitory concentration against bacteria, strain A; conditions: 24 hours at 30° C.; tested at 100 and 300 mg/liter
Description: as §3

Endomyces geotrichum = test: Minimum inhibitory concentration against fungi, agar incorporation test, strain Q; conditions: malt extract/agar
Description: as §1, §2

Chaetomium globosum = test: Minimum inhibitory concentration against fungi, agar incorporation test, strain S; conditions: malt extract/agar
Description: as §1, §2

Serratia marcencens = test: Minimum inhibitory concentration against bacteria, strain D; conditions: 24 hours at 30° C.; tested at 100 and 300 mg/liter
Description: as §3

Candida albicans = test: Minimum inhibitory concentration against fungi, agar incorporation test, strain P; conditions: malt extract/agar
Description: as §1, §2

Pseudomonas aeruginosa = test: Minimum inhibitory concentration against bacteria, strain B; conditions: 24 hours at 30° C.; tested at 100 and 300 mg/liter
Description: as §3

Alternaria alternata = test: Minimum inhibitory concentration against fungi, agar incorporation test, strain N; conditions: malt extract/agar
Description: as §1, §2

CCCCCCCCCCCC[N+](C)(C)O.CCC[CH2][Sn-]([Cl])([Cl])([CH2]CCC)[CH2]CCC [Example 14, (CH3)2 N(OH)C12 H25 / Tributyldichloro]
2 µg/mL: MIC against fungi, strain R (Aureobasidium pullulans) | MIC against fungi, strain O [1] | MIC against fungi, strain L (Aspergillus phoenicis) | MIC against fungi, strain K (Aspergillus niger) | MIC against fungi, strain S (Chaetomium globosum) | MIC against fungi, strain N (Alternaria alternata)
> 300 µg/mL: MIC against bacteria, strain C (Enterobacter aerogenes)
10 µg/mL: MIC against fungi, strain Q (Endomyces geotrichum)
--: Growth on the agar (algae-destroying action) (Chlorella vulgaris) | Growth in the medium (growth inhibition) (Chlorella vulgaris)
100 µg/mL: MIC against bacteria, strain F (Bacillus subtilis) | MIC against bacteria, strain A (Proteus vulgaris) | MIC against bacteria, strain B (Pseudomonas aeruginosa)
300 µg/mL: MIC against bacteria, strain E [2] | MIC against bacteria, strain D (Serratia marcencens)
5 µg/mL: MIC against fungi, strain M (Penicillium funiculosum) | MIC against fungi, strain P (Candida albicans)

CCCCCCCCCCCCC(=O)NCCC[N+](C)(C)O.CCC[CH2][Sn-]([Cl])([Cl])([CH2]CCC)[CH2]CCC [Example 29, (C12 H25 CO)NH(CH2)3 N(OH)(CH3)2 / Tributyldichloro]
--: Growth on the agar (algae-destroying action) (Chlorella vulgaris) | Growth in the medium (growth inhibition) (Chlorella vulgaris)
≤ 5 µg/mL: MIC against fungi, strain R (Aureobasidium pullulans) | MIC against fungi, strain O [1] | MIC against fungi, strain L (Aspergillus phoenicis) | MIC against fungi, strain K (Aspergillus niger) | MIC against fungi, strain S (Chaetomium globosum) | MIC against fungi, strain P (Candida albicans) | MIC against fungi, strain N (Alternaria alternata)
300 µg/mL: MIC against bacteria, strain E [2]
100 µg/mL: MIC against bacteria, strain F (Bacillus subtilis) | MIC against bacteria, strain A (Proteus vulgaris) | MIC against bacteria, strain B (Pseudomonas aeruginosa)
10 µg/mL: MIC against fungi, strain M (Penicillium funiculosum) | MIC against fungi, strain Q (Endomyces geotrichum)
> 300 µg/mL: MIC against bacteria, strain C (Enterobacter aerogenes) | MIC against bacteria, strain D (Serratia marcencens)

C14 H29 (CH3)2NCH2CHOHCH2 OH / Tributyldichloro [Example 21]
--: Growth on the agar (algae-destroying action) (Chlorella vulgaris) | Growth in the medium (growth inhibition) (Chlorella vulgaris)
100 µg/mL: MIC against bacteria, strain C (Enterobacter aerogenes) | MIC against bacteria, strain E [2] | MIC against bacteria, strain F (Bacillus subtilis) | MIC against bacteria, strain A (Proteus vulgaris) | MIC against bacteria, strain D (Serratia marcencens) | MIC against bacteria, strain B (Pseudomonas aeruginosa)
≤ 5 µg/mL: MIC against fungi, strain R (Aureobasidium pullulans) | MIC against fungi, strain O [1] | MIC against fungi, strain M (Penicillium funiculosum) | MIC against fungi, strain L (Aspergillus phoenicis) | MIC against fungi, strain K (Aspergillus niger) | MIC against fungi, strain Q (Endomyces geotrichum) | MIC against fungi, strain S (Chaetomium globosum) | MIC against fungi, strain P (Candida albicans) | MIC against fungi, strain N (Alternaria alternata)

CCC[CH2][Sn-]([Cl])([Cl])([CH2]CCC)[CH2]CCC.CCC[CH2][Sn-]([Cl])([Cl])([CH2]CCC)[CH2]CCC.C[N+](C)(C)CCCCCC[N+](C)(C)C [Example 23, (CH3)3 N(CH2)6 N(CH3)3 / Tributyldichloro]
10 µg/mL: MIC against fungi, strain M (Penicillium funiculosum) | MIC against fungi, strain L (Aspergillus phoenicis) | MIC against fungi, strain K (Aspergillus niger) | MIC against fungi, strain Q (Endomyces geotrichum)
100 µg/mL: MIC against bacteria, strain F (Bacillus subtilis) | MIC against bacteria, strain A (Proteus vulgaris) | MIC against bacteria, strain B (Pseudomonas aeruginosa)
300 µg/mL: MIC against bacteria, strain C (Enterobacter aerogenes) | MIC against bacteria, strain E [2]
> 300 µg/mL: MIC against bacteria, strain D (Serratia marcencens)
≤ 5 µg/mL: MIC against fungi, strain R (Aureobasidium pullulans) | MIC against fungi, strain O [1] | MIC against fungi, strain S (Chaetomium globosum) | MIC against fungi, strain P (Candida albicans) | MIC against fungi, strain N (Alternaria alternata)
--: Growth on the agar (algae-destroying action) (Chlorella vulgaris) | Growth in the medium (growth inhibition) (Chlorella vulgaris)
